According to patent US9084806B2, “Hypoxia-responsive nanoparticle for therapy and imaging of hypoxia-involving diseases” (RESEARCH & BUSINESS FOUNDATION SUNGKYUNKWAN UNIVERSITY, priority 2012, dated 2015):
“Also recorded” adds a separate entry of the source.

Experiments:
[1] = cited from earlier work
[2] = system: SCC7 cells; assay: In vitro cytotoxicity, MTT assay; format: cell-based; conditions: 24 h, various concentrations
Method: To evaluate in vitro cytotoxicity of HR-NPs, they were exposed to the SCC7 cells for 24 h at 37° C., after which the cell viability was measured using the MTT assay (FIG. 6a).
SCC7 (squamous carcinoma) cell lines, obtained from the American Type Culture Collection (Rockville, Md., USA), were cultured in RPMI 1640 medium (Gibco, Grand Island, N.Y., USA) containing 10% (v/v) fetal bovine serum and 1% (w/v) penicillin-streptomycin at 37° C. in a humidified 5% CO2-95% air atmosphere. The cells were seeded at a density of 1 104 cells/well in 96-well flat-bottomed plates. After one day of growth, the cells were washed twice with a PBS (pH 7.4) and incubated for 24 h with various concentrations of free DOX or DOX-HR-NPs (HR-NP8 and HR-NP11) under the hypoxic or normoxic condition. The cells were then washed twice with a PBS (pH 7.4) and the fresh culture medium was added. Twenty microliters of 3-(4,5-dimethylthiazol-2-yl)-2,5-diphenyltetrazolium bromide solution (5 mg/ml in PBS) were added to each well, and the cells were incubated for an additional 4 h at 37° C. Subsequently, the medium was removed, and the cells were dissolved in DMSO. The absorbance at 570 nm was measured using a microplate reader (BioTek, Seoul, Korea).

[3] = system: SCC7 cancer xenografts; assay: In vivo antitumor efficacy; design: species or system mice; conditions: DOX dose 5 mg/kg, once every three days
Method: To evaluate the anti-tumor efficacy of HR-NPs, SCC7 tumor bearing mice were prepared, as previously described. Mice were divided into three groups: (i) normal saline (ii) free DOX at 5 mg/kg, and (iii) DOX-HR-NP11 at 5 mg DOX/kg. When tumors reached 8 mm in diameter, each sample was injected once every three days. Tumor volumes were calculated as a×b^2/2, were a was the largest and b the smallest diameter. The statistical significance of differences (p<0.05) between groups tested was determined using one-way ANOVA test.

Row | Structure (SMILES) | solubility in water [1] | cytotoxicity in the hypoxic condition compared with the normoxic condition [2] | change in tumor volume [3]
1 | Nc1ncc[nH]1 [2-aminoimidazole] | readily dissolving in water; also recorded: highly water-soluble |  | 
2 | O=[N+]([O-])c1ncc[nH]1 [2-nitroimidazole] | poorly soluble in water |  | 
3 | COc1cccc2c1C(=O)c1c(O)c3c(c(O)c1C2=O)C[C@@](O)(C(=O)CO)C[C@@H]3O[C@H]1C[C@H](N)[C@H](O)[C@H](C)O1 [free DOX, doxorubicin] |  | comparable | considerable increase
